assay: in vitro; details: human, hela cells, % viability

SMILES	viability at 28.5 h, 10 µM [%]
Cc1ccc(C(C)C)c(OCCSc2nc3c(N)ncnc3[nH]2)c1 [CBK266941]	94.3
COc1ccccc1N1CCN(C(=O)NCC2CCCCC2)CC1 [CBK155588]	98.3
CCOC(=O)c1noc2nc(C)n(Cc3nc(-c4ccccc4)oc3C)c(=O)c12 [CBK294400]	89.6
CCn1cc(-c2cncn2CC(C)n2nc(C)cc2C)cn1 (stereo not drawn) [CBK281775]	87.1
CCN1C(=O)COC[C@@H]1[C@H](O)c1ccc(NC(=O)COc2ccccc2)cc1 [CBK289685]	96.6
COc1cc(C2NC(C(=O)O)Cc3c2[nH]c2ccccc32)cc(OC)c1OC (stereo not drawn) [CBK219193]	101
Nc1nc2c(s1)c(=O)[nH]c(=O)n2-c1ccc(Cl)cc1 [CBK269891]	78.1
CCCCSc1nnc(-c2cc3c(C(F)(F)F)nn(C)c3s2)n1C [CBK019526]	97.5
CC(=O)N1CCC(C(=O)NC(=O)Nc2ccccc2F)CC1 [CBK034848]	107
COc1cc(C2C3=C(CC(C)(C)CC3=O)OC3=C2C(=O)CC(C)(C)C3)ccc1OCC(=O)O [CBK262379]	94.8
CC(=O)c1ccc(-c2nccnc2N2CCCC2CO)s1 (stereo not drawn) [CBK037483]	113
NS(=O)(=O)c1ccc(NS(=O)(=O)c2ccc(NC(=O)Nc3ccc(Cl)cc3)cc2)cc1 [CBK264902]	90.9
COc1cc2c3c([nH]c2cc1F)C1(CCN(CCOc2ccccc2)C1)NCC3 (stereo not drawn) [CBK115687T]	77.6
O=C(O)C(c1c[nH]c2cc(CO)ccc12)N1CCCN(c2ccc(C(F)(F)F)cn2)CC1 (stereo not drawn) [CBK286845]	85.3
OCCOc1ccnc2ccccc12 [CBK113395]	95.8
CC(C)c1ccc(OCCN2CCNCC2)cc1 [CBK266024C]	96
C=C(C)CNC(=O)c1cc(-c2ccc(OC)cc2)cnc1NCC1CC1 [CBK076339]	97.7
COc1cccc(C(=O)N2CCC(NC(=O)c3ccccc3C(F)(F)F)CC2)c1 [CBK155024]	99.4
Cc1oc2c(c1C(=O)N(C)CCN1CCCCC1)CCCC2 [CBK281907]	90.8
O=C(Oc1cccc2cccnc12)c1cccc(S(=O)(=O)Oc2cccc3cccnc23)c1 [CBK264545]	58.4
O=C(CSc1nnc(-c2cccs2)n1-c1ccccc1)c1c[nH]c2ccccc12 [CBK268452]	101

SMILES	viability at 28.5 h, 10 µM [%]
Oc1c(CN2CCN(Cc3ccc4cccnc4c3O)CC2)ccc2cccnc12 [CBK261994]	86.1
CC(C)C(=O)NC(C)c1nc(-c2ccncc2)n[nH]1 (stereo not drawn) [CBK104021]	113
COc1ccc(CNc2cc(-c3cccc(Cl)c3)nc3ccnn23)cc1 [CBK037037]	95.8
COC(=O)CCc1sc(NC(=O)CSCC(=O)O)nc1-c1ccc(OC)cc1 [CBK296116]	93.6
O=C(O)c1ccccc1SC1CC(=O)N(c2ccccc2)C1=O (stereo not drawn) [CBK273885]	94.6
CSc1ccc(-c2nccnc2OCCN(C(C)C)C(C)C)cc1 [CBK106805]	107
c1ccc(CSc2nnc(-c3ccco3)o2)cc1 [CBK026283]	106
O=C(CSc1nnc(-c2ccccc2Br)o1)c1ccc(F)cc1 [CBK068688]	92.2
CCN(Cc1ccc(C#N)cc1F)C(=O)Nc1cc(C)nn1C [CBK305730]	94.2
O=C(NCCOc1ccccc1Cl)NC(=O)C1CCN(CCOc2ccc(Br)cc2)CC1 [CBK034897]	84.6
COc1cc(C(=O)Nc2ccc(-c3nc4ncccc4o3)cc2)ccc1OCc1ccc(Cl)cc1 [CBK033914]	92.7
Cc1ccc(C)c(NC(CC(=O)c2ccccc2)C(=O)O)c1 (stereo not drawn) [CBK265485]	102
COc1ccnc(N2CCN(C(=O)c3c4c(nn3C)CCCC4)CC2)n1 [CBK304609]	118
Cc1cc(Cl)ccc1CNS(=O)(=O)c1cccs1 [CBK044714]	97
CCN1CCCC(CNS(=O)(=O)c2cc(-n3cccn3)ccc2OC)C1 (stereo not drawn) [CBK306997]	85.3
COc1ccc(-c2ccc(=O)n(CC(=O)NCc3ccc(C(=O)O)cc3)n2)c(F)c1 [CBK286776]	91.5
Cc1nc(CC(=O)O)c(-c2ccccc2)s1 [CBK264988]	110
COc1ccc(OC)c(C(O)CN2CCCC(C(=O)N3CCCCCC3)C2)c1 (stereo not drawn) [CBK286286]	87.5
OCCOc1cccc2cccnc12 [CBK001784]	104
Cc1nc2n(n1)CCN(C(=O)Cc1c(C)[nH]c3ccc(F)cc13)C2 [CBK284355]	83.1
Nn1c(SCC(=O)Nc2cccc3ccccc23)nnc1-c1ccccc1Cl [CBK266080]	97.7

SMILES	viability at 28.5 h, 10 µM [%]
CCN(CC)C(=O)Cn1nc2c(C)cc3ccccc3n2c1=O [CBK283879]	84.1
CCCN(c1nc(C)c(Br)c(OC)n1)S(=O)(=O)c1ccc(C)cc1 [CBK028072]	105
COc1ccnc(N2CCCN(CCCC#N)CC2)n1 [CBK084124]	88.4
c1ncc(OC2CCN(CCN3CCOCC3)C2)nc1OCCN1CCOCC1 (stereo not drawn) [CBK084492]	97.6
Cc1ncc(-c2ccc3ccccc3c2)s1 [CBK019439B]	91.5
NNC(=O)CCn1c2ccc(Cl)cc2c2cc(Cl)ccc21 [CBK261413]	88.8
COC(=O)C1=C(C)N(CCc2ccc(OC)c(OC)c2)C(=O)/C1=C\c1ccc(O)cc1 [CBK263722]	89.6
CCOc1ccc(CC(=O)NN2CCOCC2)cc1OCC [CBK268150]	102
CC1(C)C[C@H](NC(=O)c2ccccc2)[C@@]2(CCC(=O)NC3CC3)CC[C@](C)(O)C[C@@H]12 [CBK289045]	92.6
CCOC(=O)Cn1nnc(-c2ccc(Cl)cc2)n1 [CBK069596]	95.8
CCC(C)(C)c1ccc(S(=O)(=O)N2CCN(Cc3cccc4cccnc34)CC2)cc1 [CBK062830]	98.1
COC(=O)c1c(NC(=S)NCc2cccs2)sc(C)c1-c1ccccc1 [CBK266943]	97
O=C(O)CCc1ccc(-c2ccc(Nc3cccnc3)nc2)cc1 [CBK037768]	106
CCc1ccc(CCC(=O)N2CCN(S(=O)(=O)c3sc(C(=O)O)c(C)c3C(=O)O)CC2)cc1 [CBK297138]	111
Cc1ccc(C(=O)O)cc1S(=O)(=O)N(CCO)CCO [CBK267335]	102
COc1c(C(N)=O)c(O)c(OC)c2occc12 [CBK016255]	80.5
CCC(C)NC(=O)C1(Cc2ccc(-c3cc(F)ccc3OC)cc2)CCOCC1 (stereo not drawn) [CBK285539]	102
COc1ccc(N(CC(=O)Nc2ccc3c(c2)oc2ccccc23)S(=O)(=O)c2ccccc2)cc1 [CBK264814]	104
COc1ccc(C[C@@]23CCC(=O)C[C@@H]2N(C)CC3)cc1 [CBK009720]	102

same assay, conditions: human, hela cells, % viability, bulk resorufin, single well

SMILES	viability at 28.5 h, 10 µM [%]
C=CCc1cc(/C=C2\C(=O)NC(=O)N(c3ccc4c(c3)OCO4)C2=O)cc(OC)c1OCC(=O)O [CBK264025]	98.5
COc1cc(/C=C2\C(=O)NC(=O)N(c3cc(C)ccc3C)C2=O)ccc1O [CBK264161]	91
